Converted amounts (≈) assume the structure as drawn.
Columns and labels:
D. immitis Slo-1 = D. immitis Slo-1 (Dirofilaria immitis, UniProt I0DFK5); test: In Vitro Assay 2: D. immitis Slo-1, membrane potential measurement in recombinant CHO cell line; format: cell-based
[1] = test system: Dirofilaria immitis microfilariae; test: In Vitro Assay 3: Dirofilaria immitis microfilariae (DIROIM L1) motility; format: cell-based; details: 72 h
[2] = test system: Dirofilaria immitis third-stage larvae; test: In Vitro Assay 4: Dirofilaria immitis (DIROIM L4) larval motility; format: cell-based; details: 72 h
[3] = test system: Adult Nippostrongylus brasiliensis; test: In Vitro Assay 5: Nippostrongylus brasiliensis (NIPOBR), acetylcholine esterase readout; format: cell-based; details: acetylcholine esterase activity in medium vs negative control, adult worms, read-out: EC50
Procedure: In Vitro Assay 5: Nippostrongylus Brasiliensis (NIPOBR)
Adult Nippostrongylus brasiliensis were washed with saline buffer containing 100 U/ml penicillin, 0.1 mg/ml streptomycin and 2.5 μg/ml amphotericin B. Test compounds were dissolved in DMSO and worms were incubated in medium in a final concentration of 10 μg/ml (10 ppm), 1 μg/ml (1 ppm) and 0.1 μg/ml (0.1 ppm) respectively. An aliquot of the medium was used to determine the acetylcholine esterase activity in comparison to a negative control. The principle of measuring acetylcholine esterase as readout for anthelmintic activity was described in Rapson et al (1986) and Rapson et al (1987).
Based on the evaluation of a wide concentration range, concentration-response curves as well as EC50-values were calculated.

C. elegans Slo-1a = C. elegans Slo-1a (Caenorhabditis elegans, UniProt Q95V25)
C. elegans Slo-1a, sequence (Q95V25 whole entry): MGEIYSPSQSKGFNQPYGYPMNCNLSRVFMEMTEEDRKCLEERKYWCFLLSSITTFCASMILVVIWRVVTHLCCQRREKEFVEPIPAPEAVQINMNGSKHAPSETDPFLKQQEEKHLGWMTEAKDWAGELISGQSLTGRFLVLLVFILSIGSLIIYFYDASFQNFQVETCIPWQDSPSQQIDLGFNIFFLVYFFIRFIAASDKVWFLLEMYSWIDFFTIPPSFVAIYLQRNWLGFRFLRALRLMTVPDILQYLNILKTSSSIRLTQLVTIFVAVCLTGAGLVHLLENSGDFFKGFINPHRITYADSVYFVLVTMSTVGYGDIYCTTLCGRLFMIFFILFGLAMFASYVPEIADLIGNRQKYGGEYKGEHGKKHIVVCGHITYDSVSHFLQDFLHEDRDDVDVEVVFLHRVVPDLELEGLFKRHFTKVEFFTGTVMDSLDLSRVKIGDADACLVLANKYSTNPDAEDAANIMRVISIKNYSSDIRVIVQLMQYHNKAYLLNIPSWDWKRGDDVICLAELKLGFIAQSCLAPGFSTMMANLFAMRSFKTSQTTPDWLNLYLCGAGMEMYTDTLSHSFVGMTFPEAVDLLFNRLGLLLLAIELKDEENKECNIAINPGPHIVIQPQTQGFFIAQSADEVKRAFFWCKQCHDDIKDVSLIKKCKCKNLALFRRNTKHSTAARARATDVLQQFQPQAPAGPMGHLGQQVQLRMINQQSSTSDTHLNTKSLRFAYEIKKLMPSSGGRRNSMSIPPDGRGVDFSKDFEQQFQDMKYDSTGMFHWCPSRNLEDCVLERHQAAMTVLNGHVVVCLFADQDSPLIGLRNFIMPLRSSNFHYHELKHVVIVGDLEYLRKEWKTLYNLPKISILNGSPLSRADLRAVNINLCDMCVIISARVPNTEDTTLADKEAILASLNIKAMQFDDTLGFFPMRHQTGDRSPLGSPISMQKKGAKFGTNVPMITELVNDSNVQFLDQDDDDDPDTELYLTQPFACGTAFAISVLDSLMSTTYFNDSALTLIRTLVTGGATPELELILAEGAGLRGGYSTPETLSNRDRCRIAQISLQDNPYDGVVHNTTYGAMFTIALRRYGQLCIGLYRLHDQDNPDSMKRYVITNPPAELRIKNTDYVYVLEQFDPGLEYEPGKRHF
Procedure: For transfection with plasmid DNA to express C. elegans Slo-1a (accession number AAL28102) CHO cells were passaged to 40% confluence before adding the transfection solution to the cell culture. The transfection solution included 300 μL OptiMEM (Life Technologies, Nr.: 31985), 2 μL (=6 μg) of plasmid DNA containing the C. elegans Slo-1a gene and 9 μL FugeneHD (Promega, Nr.: E2311), and was added to the cells prior to incubation for 48 hours at 37° C., 5% CO2. The transfection medium was exchanged for the selection medium which contains additional G418 (2 mg/ml, Invitrogen, Nr.: 10131) and the cells were seeded into 384 well plates (300 cells/well). After a few weeks, the remaining surviving cells were tested with a voltage sensitive dye (Membrane Potential Assay Kit, Molecular Devices Nr.: R8034) for K+ channel expression. Positive cell clones were purified by the limited dilution technique. For this the clone with the highest and most robust signal in the voltage sensitive dye assay was further subcloned (incubated) in 384 well plates (0.7 cells/well) to obtain clonal purity. This generated a final stable CHO cell line expressing the C. elegans Slo-1a.
Cell culture conditions Cells were cultured at 37° C. and 5% CO2 in MEMalpha with Gutamax I (Invitrogen, Nr.: 32571), supplemented with 10% (v/v) heat inactivated fetal bovine serum (Invitrogen, Nr.: 10500), G418 (1 mg/ml, Invitrogen, Nr.: 10131). Cells were detached using Accutase (Sigma, Nr.: A6964).
Membrane Potential Measurements
Laboratory compound testing was performed on 384-well microtiter plates (MTPs, Greiner, Nr.: 781092). 8000 cells/well were plated onto 384-well MTPs and cultured for 20 to 24 hours at 37° C. and 5% CO2. After removal of the cell culture medium, the cells were washed once with tyrode (150 mM NaCl, 0.3 mM KCl, 2 mM CaCl2, 1 m M MgCl2, 0.8 mM NaH2PO4, 5 mM Glucose, 28 mM Hepes, pH 7.4) and then loaded with the voltage sensitive dye of the Membrane Potential Assay Kit diluted in tyrode for 1 h at room temperature. After starting the measurement of fluorescence using a FLIPR Tetra (Molecular Devices, Exc. 510-545 nm, Emm. 565-625 nm), test compounds were added followed by the addition of KCl tyrode (final assay concentration: 70 mM KCl, 2 mM CaCl2, 1 mM MgCl2, 0.8 mM NaH2PO4, 5 mM Glucose, 28 mM Hepes, pH 7.4, including the voltage sensitive dye). The measurement was completed after 7 minutes.
EC50 values were calculated using a four-parameter plotting by the Scilligence ELN/Regmol Software Tool, Bioassay.

D. immitis Slo-1, sequence (I0DFK5 1-1119): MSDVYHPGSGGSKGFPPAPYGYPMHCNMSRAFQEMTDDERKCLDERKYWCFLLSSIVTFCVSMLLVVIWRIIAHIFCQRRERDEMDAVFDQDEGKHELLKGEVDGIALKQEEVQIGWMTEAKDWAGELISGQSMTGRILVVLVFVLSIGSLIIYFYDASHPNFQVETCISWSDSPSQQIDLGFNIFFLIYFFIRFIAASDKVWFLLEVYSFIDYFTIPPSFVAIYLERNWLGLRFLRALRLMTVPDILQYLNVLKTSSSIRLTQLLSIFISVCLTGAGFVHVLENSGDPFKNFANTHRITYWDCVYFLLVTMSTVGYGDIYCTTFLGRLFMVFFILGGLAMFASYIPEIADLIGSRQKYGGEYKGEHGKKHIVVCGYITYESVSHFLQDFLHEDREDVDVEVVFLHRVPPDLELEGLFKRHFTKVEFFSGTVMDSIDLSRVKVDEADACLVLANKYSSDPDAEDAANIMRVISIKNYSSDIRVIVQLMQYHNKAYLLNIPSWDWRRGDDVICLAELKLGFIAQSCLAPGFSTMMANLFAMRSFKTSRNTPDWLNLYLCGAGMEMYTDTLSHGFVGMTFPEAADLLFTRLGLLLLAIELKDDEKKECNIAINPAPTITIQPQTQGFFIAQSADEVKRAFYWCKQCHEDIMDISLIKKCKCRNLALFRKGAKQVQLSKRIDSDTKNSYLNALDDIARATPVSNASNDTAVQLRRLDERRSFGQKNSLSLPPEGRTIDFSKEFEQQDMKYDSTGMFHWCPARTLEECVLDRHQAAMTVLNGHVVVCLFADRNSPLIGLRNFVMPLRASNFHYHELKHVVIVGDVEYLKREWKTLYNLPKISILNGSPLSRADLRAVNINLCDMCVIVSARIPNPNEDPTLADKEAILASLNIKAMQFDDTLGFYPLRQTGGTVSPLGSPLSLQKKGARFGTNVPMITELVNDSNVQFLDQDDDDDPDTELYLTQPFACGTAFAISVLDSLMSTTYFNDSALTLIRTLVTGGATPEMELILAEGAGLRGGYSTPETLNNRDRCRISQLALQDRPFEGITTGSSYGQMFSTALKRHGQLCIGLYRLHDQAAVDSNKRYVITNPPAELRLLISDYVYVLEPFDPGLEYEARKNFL

Row | Structure (SMILES) | EC50 (D. immitis Slo-1) | EC50 [1] | EC50 [2] | EC50 [3] | EC50 (C. elegans Slo-1a)
1 | CC(C)c1c(C(=O)NN2CCOc3ccccc32)cnc2c1cnn2-c1cc(F)cc(F)c1F [Example 10.1, N-(2,3-Dihydro-4H-benzo[b][1,4]oxazin-4-yl)-4-isopropyl-1-(2,3,5-trifluorophenyl)-1H-pyrazolo[3,4-b]pyridine-5-carboxamide] | > 1 µM | 0.1 to 1 µg/mL (≈ 0.214 to 2.14 µM) | < 0.1 µg/mL | > 1 µg/mL | 0.1 to 1 µM
2 | Cc1nn(-c2cc(F)cc(F)c2F)c2ncc(C(=O)NN3CCOc4ccccc43)c(C(C)C)c12 [Example 10.2, N-(2,3-Dihydro-4H-benzo[b][1,4]oxazin-4-yl)-4-isopropyl-3-methyl-1-(2,3,5-trifluorophenyl)-1H-pyrazolo[3,4-b]pyridine-5-carboxamide] | > 1 µM | 0.1 to 1 µg/mL (≈ 0.208 to 2.08 µM) | > 1 µg/mL | > 1 µg/mL | > 1 µM
3 | CC(C)c1c(C(=O)NN2CCOc3ccccc32)cnc2c(-c3cc(F)cc(F)c3F)ncn12 [Example 11.1, N-(2,3-Dihydro-4H-benzo[b][1,4]oxazin-4-yl)-4-isopropyl-8-(2,3,5-trifluoro-phenyl)-imidazo[1,5-a]pyrimidine-3-carboxamide] | > 1 µM | 0.1 to 1 µg/mL (≈ 0.214 to 2.14 µM) | < 0.1 µg/mL | > 1 µg/mL | 0.1 to 1 µM
4 | CC(C)n1c(C(=O)NN2CCOc3ccccc32)nc2c(-c3cc(F)cc(F)c3F)nccc21 [Example 12.1, N-(2,3-Dihydro-4H-benzo[b][1,4]oxazin-4-yl)-1-isopropyl-4-(2,3,5-trifluorophenyl)-1H-imidazo[4,5-c]pyridine-2-carboxamide] | > 1 µM | 0.1 to 1 µg/mL (≈ 0.214 to 2.14 µM) | < 0.1 µg/mL | > 1 µg/mL | > 1 µM
5 | CC(C)n1c(C(=O)NN2CCOc3ccccc32)nc2c(-c3cc(F)cc(F)c3F)cccc21 [Example 13.1, N-(2,3-Dihydro-4H-benzo[b][1,4]oxazin-4-yl)-1-isopropyl-4-(2,3,5-trifluorophenyl)-1H-benzo[d]imidazole-2-carboxamide] | > 1 µM | 0.1 to 1 µg/mL (≈ 0.214 to 2.14 µM) | 0.1 to 1 µg/mL (≈ 0.214 to 2.14 µM) | > 1 µg/mL | 0.1 to 1 µM
6 | CC(C)c1c(C(=O)NN2CCOc3ccccc32)cnc2c1nnn2-c1cc(F)cc(F)c1F [Example 14.1, N-(2,3-Dihydro-4H-benzo[b][1,4]oxazin-4-yl)-7-isopropyl-3-(2,3,5-trifluorophenyl)-3H-[1,2,3]triazolo[4,5-b]pyridine-6-carboxamide] | > 1 µM | < 0.1 µg/mL | > 1 µg/mL | > 1 µg/mL | > 1 µM
7 | CC(C)c1c(C(=O)NN2CCOc3ccccc32)ccn2c(-c3c(F)ccc(F)c3F)nnc12 [Example 15.1, N-(2,3-Dihydro-1,4-benzoxazin-4-yl)-8-isopropyl-3-(2,3,6-trifluorophenyl)-[1,2,4] triazolo [4,3-a]pyridine-7-carboxamide] | > 1 µM | 0.1 to 1 µg/mL (≈ 0.214 to 2.14 µM) | > 1 µg/mL | > 1 µg/mL | > 1 µM
8 | CC(C)c1c(C(=O)NN2CCOc3ccccc32)ccc2c1nnn2-c1cc(F)cc(F)c1F [Example 16.1, N-(2,3-Dihydro-4H-benzo[b][1,4]oxazin-4-yl)-4-isopropyl-1-(2,3,5-trifluorophenyl)-1H-benzo[d][1,2,3]triazole-5-carboxamide] | > 1 µM | > 1 µg/mL | > 1 µg/mL | > 1 µg/mL | > 1 µM
9 | CC(C)c1c(C(=O)NN2CCOc3ccccc32)[nH]c2c(-c3cc(F)cc(F)c3F)cccc12 [Example 17.1, N-(2,3-dihydro-1,4-benzoxazin-4-yl)-3-(1-methylethyl)-7-[2,3,5-tris(fluoranyl)-phenyl]-1H-indole-2-carboxamide] | > 1 µM | < 0.1 µg/mL | > 1 µg/mL | > 1 µg/mL | > 1 µM

— US20240059680A1, “N-(2,3-DIHYDRO-1,4-BENZOXAZIN-4-YL)-3-ISOPROPYL-7-(2,3,5-TRIFLUOROPHENYL)BENZO-THIOPHENE-2-CARBOXAMIDE DERIVATIVES AND SIMILAR COMPOUNDS FOR THE TREATMENT OF HEARTWORM INFECTIONS” (ELANCO TIERGESUNDHEIT AG, priority 2020, published 2024)
